Reference: doi:10.1101/2021.06.10.447714v2 (bioRxiv, 2021)

How the values were obtained:
Type in all cases: biochemical
[1] = target: T1, insulin degrading enzyme (IDE) (Homo sapiens, UniProt P14735); experiment: SDS-PAGE assay for ghrelin proteolysis by IDE; details: EDTA added to the enzyme pre-mixture, 50 mM Tris pH 7.3, 37 °C
[2] = target: T1, insulin degrading enzyme (IDE); experiment: Identification of IDE-mediated cleavage sites by HPLC and MALDI-TOF; details: HPLC (C-18) and MALDI-TOF; 50 mM Tris pH 7.3, 37 °C; three runs
[3] = target: T1, insulin degrading enzyme (IDE); experiment: Circular dichroism analysis of insulin degradation by IDE; details: CD at 222 nm and LC, substrate:enzyme ratio 100:1, 37 °C

## O=C(O)CN(CCN(CC(=O)O)CC(=O)O)CC(=O)O [EDTA, ethylenediaminetetraacetate]
[1]
  inhibition of IDE-mediated ghrelin proteolysis: inhibited

## CCCCCCCC(=O)OC[C@H](NC(=O)[C@H](CO)NC(=O)CN)C(=O)N[C@@H](Cc1ccccc1)C(=O)N[C@@H](CC(C)C)C(=O)N[C@@H](CO)C(=O)N1CCC[C@H]1C(=O)N[C@@H](CCC(=O)O)C(=O)N[C@@H](Cc1cnc[nH]1)C(=O)N[C@@H](CCC(N)=O)C(=O)N[C@@H](CCCNC(=N)N)C(=O)N[C@H](C(=O)N[C@@H](CCC(N)=O)C(=O)N[C@@H](CCC(N)=O)C(=O)N[C@@H](CCCNC(=N)N)C(=O)N[C@@H](CCCCN)C(=O)N[C@@H](CCC(=O)O)C(=O)N[C@@H](CO)C(=O)N[C@@H](CCCCN)C(=O)N[C@@H](CCCCN)C(=O)N1CCC[C@H]1C(=O)N1CCC[C@H]1C(=O)N[C@@H](C)C(=O)N[C@@H](CCCCN)C(=O)N[C@@H](CC(C)C)C(=O)N[C@@H](CCC(N)=O)C(=O)N1CCC[C@H]1C(=O)N[C@@H](CCCNC(=N)N)C(=O)O)C(C)C [ghrelin]
[2]
  IDE-mediated cleavage sites (initial): Q13/ Q14, Q14/R15 and possibly Q10/R11

## insulin: established IDE substrate, used in CD experiments
[3]
  insulin degradation by IDE in 30% TFE: does not degrade
